Test: Stability in aqueous solution (extent of free base precipitation from an aqueous solution of the test compound)
Type: physicochemical
Details: known temperature and known period (not specified), 富马酸盐

## COc1cc2c3c(c1O)-c1c(ccc(OC)c1OC)C[C@@H]3N(C)CC2 [Ⅱˉ表示的富马酸根的式(Ⅲ)化合物, 紫堇定碱富马酸盐]
  aqueous solution stability: 特别稳定 and 异常的稳定

Reference: patent CN103910677A, “紫堇定碱衍生物的盐” (Shanghai Yizhi Pharmaceutical Technology Co Ltd, priority 2013, dated 2014)
